The target of assay [1] is T1, human muscarinic M4 receptor (Homo sapiens, UniProt P08173).
T1 construct: expressed in transfected cells
T1 sequence (P08173 1-479): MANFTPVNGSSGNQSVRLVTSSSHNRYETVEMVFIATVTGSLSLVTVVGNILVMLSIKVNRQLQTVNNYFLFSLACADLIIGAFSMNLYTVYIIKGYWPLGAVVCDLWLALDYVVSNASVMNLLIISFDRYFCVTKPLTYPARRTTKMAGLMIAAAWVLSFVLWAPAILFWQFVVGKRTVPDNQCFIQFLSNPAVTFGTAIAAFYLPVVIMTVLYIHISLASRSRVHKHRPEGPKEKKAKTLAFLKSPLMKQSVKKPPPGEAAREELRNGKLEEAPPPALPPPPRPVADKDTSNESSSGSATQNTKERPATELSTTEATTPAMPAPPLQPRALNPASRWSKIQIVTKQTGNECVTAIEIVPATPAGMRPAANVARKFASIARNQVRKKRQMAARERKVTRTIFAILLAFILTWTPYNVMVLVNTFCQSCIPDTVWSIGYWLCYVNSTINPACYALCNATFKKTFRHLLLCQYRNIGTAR
The assay is described as follows: Alphascreen Surefire phospho-ERK1/2 functional assay, M4. To be noted: for EC50: phospho-ERK1/2, * = variable results, read-out: pEC50 M4 (converted); for Emax: CHO, read-out: % Emax cf. ACh, M4, CHO cells stably expressing human M4. The assay is classed as cell-based.

The target of assay [2] is T2, human muscarinic M1 receptor (Homo sapiens, UniProt P11229).
T2 sequence (P11229 1-460): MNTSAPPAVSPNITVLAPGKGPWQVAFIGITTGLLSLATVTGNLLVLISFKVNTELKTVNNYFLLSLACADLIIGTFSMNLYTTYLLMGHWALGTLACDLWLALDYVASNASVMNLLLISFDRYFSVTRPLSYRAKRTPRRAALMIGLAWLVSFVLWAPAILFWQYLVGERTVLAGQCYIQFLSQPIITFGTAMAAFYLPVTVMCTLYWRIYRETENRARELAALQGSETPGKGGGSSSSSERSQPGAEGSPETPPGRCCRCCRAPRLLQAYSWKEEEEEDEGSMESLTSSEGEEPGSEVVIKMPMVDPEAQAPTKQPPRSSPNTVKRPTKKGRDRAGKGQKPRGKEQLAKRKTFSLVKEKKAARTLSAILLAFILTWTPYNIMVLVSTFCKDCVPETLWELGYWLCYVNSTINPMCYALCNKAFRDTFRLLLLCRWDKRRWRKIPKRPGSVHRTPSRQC
The assay is described as follows: Alphascreen Surefire phospho-ERK1/2 functional assay, M1. The assay is classed as cell-based. The following applies: for EC50: phospho-ERK1/2, * = variable results, read-out: pEC50 M1 (converted); for Emax: CHO, read-out: % Emax cf. ACh, M1, CHO cells stably expressing human M1. A general note: Alpha assays give light when donor and acceptor beads are brought close together.

The target of assay [3] is human muscarinic M3 receptor (Homo sapiens, UniProt P20309). Put plainly: Alphascreen Surefire phospho-ERK1/2 functional assay, M3. To be noted: for Emax: CHO, read-out: % Emax cf. ACh, M3, CHO cells stably expressing human M3; for Emax / % Emax cf. ACh, M3: relative to ACh; for EC50: pEC50 M3, CHO cells stably expressing human M3, phospho-ERK1/2, * = variable results; for % Emax cf. ACh, M3: CHO cells stably expressing human M3.
Chain of human muscarinic M3 receptor (P20309 whole entry): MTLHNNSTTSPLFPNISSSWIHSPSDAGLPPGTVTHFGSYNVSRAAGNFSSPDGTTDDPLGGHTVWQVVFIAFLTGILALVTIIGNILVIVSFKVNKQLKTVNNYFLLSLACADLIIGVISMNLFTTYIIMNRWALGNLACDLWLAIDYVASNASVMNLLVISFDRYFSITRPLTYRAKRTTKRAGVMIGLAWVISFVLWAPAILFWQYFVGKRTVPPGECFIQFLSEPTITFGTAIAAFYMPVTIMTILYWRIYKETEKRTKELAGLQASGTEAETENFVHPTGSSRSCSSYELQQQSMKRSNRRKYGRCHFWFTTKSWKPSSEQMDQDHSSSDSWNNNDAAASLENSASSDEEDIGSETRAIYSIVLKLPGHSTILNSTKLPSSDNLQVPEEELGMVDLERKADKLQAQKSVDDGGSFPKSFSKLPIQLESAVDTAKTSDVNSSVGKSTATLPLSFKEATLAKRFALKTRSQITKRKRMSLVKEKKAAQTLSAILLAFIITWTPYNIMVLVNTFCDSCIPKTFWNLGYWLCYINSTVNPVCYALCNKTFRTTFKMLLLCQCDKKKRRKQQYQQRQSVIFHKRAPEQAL

Assay [4] addresses T3, human muscarinic M2 receptor (Homo sapiens, UniProt P08172).
T3 sequence (P08172 1-466): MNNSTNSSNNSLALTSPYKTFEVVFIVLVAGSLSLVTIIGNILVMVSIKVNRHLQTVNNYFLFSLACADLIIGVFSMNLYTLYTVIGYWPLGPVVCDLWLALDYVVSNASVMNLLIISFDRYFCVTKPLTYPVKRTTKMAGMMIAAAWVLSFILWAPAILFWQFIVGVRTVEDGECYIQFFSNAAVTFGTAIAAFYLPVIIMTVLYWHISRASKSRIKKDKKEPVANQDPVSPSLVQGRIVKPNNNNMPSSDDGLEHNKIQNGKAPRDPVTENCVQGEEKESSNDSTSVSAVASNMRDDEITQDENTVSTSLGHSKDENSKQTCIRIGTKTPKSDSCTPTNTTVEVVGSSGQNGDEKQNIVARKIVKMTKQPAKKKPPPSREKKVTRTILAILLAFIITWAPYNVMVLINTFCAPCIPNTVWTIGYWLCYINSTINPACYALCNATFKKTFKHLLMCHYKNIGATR
The assay is described as follows: Alphascreen Surefire phospho-ERK1/2 functional assay, M2. The following applies: for Emax: CHO, read-out: % Emax cf. ACh, M2, CHO cells stably expressing human M2.

Setting [5] is: CHO cells stably expressing human M4.
Where [6] appears, read: CHO cells stably expressing human M1.

The Emax is the size of the effect at its maximum, as opposed to the concentration needed. Take `CCOC(=O)N1CCC2(CC(N3CCC(N4CCC[C@@H]4CF)CC3)C2)C1` (single isomer, unassigned) [2-102 Isomer 2]: the EC50 was 316 nM in assay [1] (setting [5]), 5010 nM in assay [2] (setting [6]), above 20000 nM in assay [3] and above 20000 nM in assay [4]. In addition, the Emax was 45% in assay [1] (relative to ACh), 23% in assay [2] (relative to ACh), 11% in assay [3] and 1% in assay [4] (relative to ACh).
As to `CCOC(=O)N1CCC2(CC(N3CCC(N4CCC[C@@H]4C(F)F)CC3)C2)C1` (single isomer, unassigned) [2-103 Isomer 2], the EC50 is 20 nM in assay [1] (setting [5]), 200 nM in assay [2] (setting [6]), above 20000 nM in assay [3] and above 20000 nM in assay [4]. The maximal response (Emax) came out at 100% in assay [1] (relative to ACh), 26% in assay [2] (relative to ACh), 3% in assay [3] and 4% in assay [4] (relative to ACh).
With `CCOC(=O)N1CCC2(CC(N3CCC(N4CCC[C@@H]4C(F)(F)F)CC3)C2)C1` (single isomer, unassigned) [2-104 Isomer 2], the EC50 in assay [1] (setting [5]) is 15.8 nM; in assay [2] (setting [6]), 79.4 nM; in assay [3] it was above 20000 nM; in assay [4] it was above 20000 nM. The maximum response (Emax) in assay [1] (relative to ACh) stood at 111%; in assay [2] (relative to ACh), 102%; in assay [3] it was 8%; in assay [4] (relative to ACh) it was 8%.
With `CCOC(=O)N1CCC2(CC(N3CCC(N4CC(F)(F)C[C@@H]4C)CC3)C2)C1` (single isomer, unassigned) [2-106 Isomer 2], the EC50 in assay [1] (setting [5]) is 20 nM; in assay [2] (setting [6]), 126 nM; in assay [3], above 20000 nM; in assay [4], above 20000 nM. The Emax in assay [1] (relative to ACh) is 102%; in assay [2] (relative to ACh), 97%; in assay [3], 5%; in assay [4] (relative to ACh) it was 10%.
In the case of `CCOC(=O)N1CCC2(CC(N3CCC(N4CC(F)(F)C[C@@H]4CO)CC3)C2)C1` (single isomer, unassigned) [2-107 Isomer 2], the EC50 is 6.31 nM in assay [1] (setting [5]), 63.1 nM in assay [2] (setting [6]), above 20000 nM in assay [3] and above 20000 nM in assay [4]. Further, in assay [3], the Emax is 48%.
`CCOC(=O)N1CCC2(CC(N3CCC(N4CC(F)(F)C[C@@H]4C(C)O)CC3)C2)C1` (single isomer, unassigned) [2-109 Isomer 2]: the EC50 in assay [1] (setting [5]) is 15.8 nM; in assay [2] (setting [6]) it was 398 nM; in assay [3], 10000 nM; in assay [4], above 20000 nM. For the same compound, the maximal effect (Emax) is 91% in assay [1] (relative to ACh), 50% in assay [2] (relative to ACh) and 9% in assay [4] (relative to ACh). Besides, in assay [3], the “% Emax cf. ACh, M3” value was 26%.
For `CCOC(=O)N1CCC2(CC(N3CCC(N4CC(F)(F)C[C@@H]4C(C)O)CC3)C2)C1` (single isomer, unassigned) [2-109 Isomer 4], the EC50 in assay [1] (setting [5]) is 20 nM; in assay [2] (setting [6]), 316 nM; in assay [3] it was above 20000 nM. In assay [1] (CHO cells stably expressing human M4, relative to ACh), the “% Emax cf. ACh, M4” value is given as 82%. Further, the “% Emax cf. ACh, M1” value in assay [2] (CHO cells stably expressing human M1, relative to ACh) amounted to 42%. Besides, the “% Emax cf. ACh, M3” value in assay [3] stood at 9%. Further, the “pEC50 M2” value in assay [4] (CHO cells stably expressing human M2, phospho-ERK1/2, * = variable results) is reported as below 4.7. Moreover, the “% Emax cf. ACh, M2” value in assay [4] (CHO cells stably expressing human M2, relative to ACh) is on record as 15%.
Take `CCOC(=O)N1CCC2(CC(N3CCC(N4CCCC4=O)CC3)C2)C1` (single isomer, unassigned) [2-111 Isomer 2, ethyl 2-[4-(2-oxopyrrolidin-1-yl)piperidin-1-yl]-6-azaspiro[3.4]octane-6-carboxylate]: the EC50 in assay [1] (setting [5]) was 31.6 nM; in assay [2] (setting [6]), 501 nM; in assay [3], above 20000 nM; in assay [4] it was above 20000 nM. Moreover, the Emax in assay [1] (relative to ACh) was found to be 62%; in assay [2] (relative to ACh), 31%; in assay [3], 0%; in assay [4] (relative to ACh) it was 1%.
For the compound `CCOC(=O)N1CCC2(CC(N3CCC(N4C(=O)CCC4(C)C)CC3)C2)C1` (single isomer, unassigned) [2-117 Isomer 2, ethyl 2-[4-(2,2-dimethyl-5-oxopyrrolidin-1-yl)piperidin-1-yl]-6-azaspiro[3.4]octane-6-carboxylate], the EC50 in assay [1] (setting [5]) was 63.1 nM; in assay [2] (setting [6]) it was 6310 nM; in assay [3], above 20000 nM; in assay [4], above 20000 nM. For the same compound, the Emax in assay [1] (relative to ACh) is 96%; in assay [2] (relative to ACh), 99%; in assay [3] it was 7%; in assay [4] (relative to ACh) it was 4%.
Regarding `CCOC(=O)N1CCC2(CC(N3CCC(N4C(=O)OC[C@@H]4C(C)C)CC3)C2)C1` (single isomer, unassigned) [2-123 Isomer 2], the EC50 in assay [1] (setting [5]) was 316 nM; in assay [2] (setting [6]) it was 316 nM; in assay [3], above 20000 nM; in assay [4] it was above 20000 nM. For the same compound, the maximal response (Emax) in assay [1] (relative to ACh) was 93%; in assay [2] (relative to ACh) it was 114%; in assay [3], 29%; in assay [4] (relative to ACh), 8%.
On to `CCOC(=O)N1CCC2(CC(N3CCC(N4CCNC4=O)CC3)C2)C1` (single isomer, unassigned) [2-124 Isomer 2, ethyl 2-[4-(2-oxoimidazolidin-1-yl)piperidin-1-yl]-6-azaspiro[3.4]octane-6-carboxylate], for which the EC50 in assay [1] (setting [5]) is 79.4 nM; in assay [2] (setting [6]), 631 nM; in assay [3], above 20000 nM; in assay [4], above 20000 nM. Besides, the Emax in assay [1] (relative to ACh) was determined as 77%; in assay [2] (relative to ACh), 45%; in assay [3], 0%; in assay [4] (relative to ACh) it was 2%.
As for `CCOC(=O)N1CCC2(CC(N3CCC(c4ccc[nH]c4=O)CC3)C2)C1` (single isomer, unassigned) [3-2 Isomer 1, ethyl 2-[4-(2-oxo-1,2-dihydropyridin-3-yl)piperidin-1-yl]-6-azaspiro[3.4]octane-6-carboxylate], the EC50 in assay [1] (setting [5]) was 6.31 nM; in assay [2] (setting [6]) it was 31.6 nM; in assay [3] it was above 20000 nM; in assay [4], above 20000 nM. Besides, the Emax is 115% in assay [1] (relative to ACh), 97% in assay [2] (relative to ACh), 0% in assay [3] and 7% in assay [4] (relative to ACh).
As for `O=C(OCCF)N1CCC2(CC(N3CCC(c4ccc[nH]c4=O)CC3)C2)C1` (single isomer, unassigned) [3-3 Isomer 2, 2-fluoroethyl 2-[4-(2-oxo-1,2-dihydropyridin-3-yl)piperidin-1-yl]-6-azaspiro[3.4]octane-6-carboxylate], the EC50 in assay [1] (setting [5]) was 6.31 nM; in assay [2] (setting [6]) it was 25.1 nM; in assay [3], above 20000 nM; in assay [4], 10000 nM. Besides, the maximal response (Emax) was determined as 106% in assay [1] (relative to ACh), 81% in assay [2] (relative to ACh), 56% in assay [3] and 50% in assay [4] (relative to ACh).
For `COc1ncccc1C1CCN(C2CC3(CCN(C(=O)OCCF)C3)C2)CC1` (single isomer, unassigned) [3-5 Isomer 2, 2-fluoroethyl 2-[4-(2-methoxypyridin-3-yl)piperidin-1-yl]-6-azaspiro[3.4]octane-6-carboxylate], the EC50 is 15.8 nM in assay [1] (setting [5]), above 20000 nM in assay [2] (setting [6]), above 20000 nM in assay [3] and above 20000 nM in assay [4]. Moreover, the maximal effect (Emax) amounted to 80% in assay [1] (relative to ACh), 20% in assay [2] (relative to ACh), 11% in assay [3] and 65% in assay [4] (relative to ACh).

For the origin of these results see patent publication US9926297B2, “Bicyclic AZA compounds as muscarinic M1 receptor and/or M4 receptor agonists” (Heptares Therapeutics Limited, priority 2014, dated 2018).
